Laboratory results: PMC11576293, “New series of 4,6-diaryl pyrimidines: facile synthesis and antiproliferative activity as dual EGFR/VEGFR-2 inhibitors” (Frontiers in Chemistry, 2024)

Columns and labels:
Experiment in all cases: NCI-60 single-dose screen
Format in all cases: cell-based
HCC-2998 = details: Homo sapiens, single dose 10 µM, '-' = no inhibition, read-out: % Growth Inhibition
How it was run: (§1)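 NCI Developmental Therapeutics Program screen across 60 human cancer cell lines from nine tumor types; compounds tested at a single dose of 10 μM.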

DU-145 = details: Homo sapiens, single dose 10 µM, '-' = no inhibition, read-out: % Growth Inhibition
How it was run: as §1

LOX IMVI = details: Homo sapiens, single dose 10 µM, '-' = no inhibition, read-out: % Growth Inhibition
How it was run: as §1

IGROV1 = details: Homo sapiens, IGROV-1, single dose 10 µM, '-' = no inhibition, read-out: % Growth Inhibition
How it was run: as §1

T-47D = details: Homo sapiens, T47D, single dose 10 µM, '-' = no inhibition, read-out: % Growth Inhibition
How it was run: as §1

PC-3 = details: Homo sapiens, single dose 10 µM, '-' = no inhibition, read-out: % Growth Inhibition
How it was run: as §1

NCI-H522 = details: Homo sapiens, single dose 10 µM, '-' = no inhibition, read-out: % Growth Inhibition
How it was run: as §1

NCI/ADR-RES = details: Homo sapiens, single dose 10 µM, '-' = no inhibition, read-out: % Growth Inhibition
How it was run: as §1

NCI-H460 = details: Homo sapiens, single dose 10 µM, '-' = no inhibition, read-out: % Growth Inhibition
How it was run: as §1

MCF7 = details: Homo sapiens, single dose 10 µM, '-' = no inhibition, read-out: % Growth Inhibition
How it was run: as §1

HOP-62 = details: Homo sapiens, single dose 10 µM, '-' = no inhibition, read-out: % Growth Inhibition
How it was run: as §1

OVCAR-4 = details: Homo sapiens, single dose 10 µM, '-' = no inhibition, read-out: % Growth Inhibition
How it was run: as §1

SK-OV-3 = details: Homo sapiens, single dose 10 µM, '-' = no inhibition, read-out: % Growth Inhibition
How it was run: as §1

HCT-116 = details: Homo sapiens, single dose 10 µM, '-' = no inhibition, read-out: % Growth Inhibition
How it was run: as §1

ACHN 1 = details: Homo sapiens, single dose 10 µM, '-' = no inhibition, read-out: % Growth Inhibition
How it was run: as §1

SF-539 = details: Homo sapiens, single dose 10 µM, '-' = no inhibition, read-out: % Growth Inhibition
How it was run: as §1

SF-295 = details: Homo sapiens, single dose 10 µM, '-' = no inhibition, read-out: % Growth Inhibition
How it was run: as §1

CCRF-CEM = details: Homo sapiens, single dose 10 µM, '-' = no inhibition, read-out: % Growth Inhibition
How it was run: as §1

UO-31 = details: Homo sapiens, single dose 10 µM, '-' = no inhibition, read-out: % Growth Inhibition
How it was run: as §1

HOP-92 = details: Homo sapiens, single dose 10 µM, '-' = no inhibition, read-out: % Growth Inhibition
How it was run: as §1

SW-620 = details: Homo sapiens, single dose 10 µM, '-' = no inhibition, read-out: % Growth Inhibition
How it was run: as §1

KM12 = details: Homo sapiens, single dose 10 µM, '-' = no inhibition, read-out: % Growth Inhibition
How it was run: as §1

SK-MEL-5 = details: Homo sapiens, single dose 10 µM, '-' = no inhibition, read-out: % Growth Inhibition
How it was run: as §1

SNB-19 = details: Homo sapiens, single dose 10 µM, '-' = no inhibition, read-out: % Growth Inhibition
How it was run: as §1

SNB-75 = details: Homo sapiens, single dose 10 µM, '-' = no inhibition, read-out: % Growth Inhibition
How it was run: as §1

NCI-H23 = details: Homo sapiens, single dose 10 µM, '-' = no inhibition, read-out: % Growth Inhibition
How it was run: as §1

SR = details: Homo sapiens, single dose 10 µM, '-' = no inhibition, read-out: % Growth Inhibition
How it was run: as §1

SF-268 = details: Homo sapiens, single dose 10 µM, '-' = no inhibition, read-out: % Growth Inhibition
How it was run: as §1

M14 = details: Homo sapiens, single dose 10 µM, '-' = no inhibition, read-out: % Growth Inhibition
How it was run: as §1

HCT-15 = details: Homo sapiens, single dose 10 µM, '-' = no inhibition, read-out: % Growth Inhibition
How it was run: as §1

HS 578T = details: Homo sapiens, single dose 10 µM, '-' = no inhibition, read-out: % Growth Inhibition
How it was run: as §1

EKVX = details: Homo sapiens, single dose 10 µM, '-' = no inhibition, read-out: % Growth Inhibition
How it was run: as §1

A549/ATCC = details: Homo sapiens, single dose 10 µM, '-' = no inhibition, read-out: % Growth Inhibition
How it was run: as §1

CAKI-1 = details: Homo sapiens, single dose 10 µM, '-' = no inhibition, read-out: % Growth Inhibition
How it was run: as §1

MDA-MB-468 = details: Homo sapiens, single dose 10 µM, '-' = no inhibition, read-out: % Growth Inhibition
How it was run: as §1

SK-MEL-28 = details: Homo sapiens, single dose 10 µM, '-' = no inhibition, read-out: % Growth Inhibition
How it was run: as §1

RXF 393 = details: Homo sapiens, single dose 10 µM, '-' = no inhibition, read-out: % Growth Inhibition
How it was run: as §1

RPMI-8226 = details: Homo sapiens, single dose 10 µM, '-' = no inhibition, read-out: % Growth Inhibition
How it was run: as §1

UACC-62 = details: Homo sapiens, single dose 10 µM, '-' = no inhibition, read-out: % Growth Inhibition
How it was run: as §1

OVCAR-3 = details: Homo sapiens, single dose 10 µM, '-' = no inhibition, read-out: % Growth Inhibition
How it was run: as §1

786-0 = details: Homo sapiens, single dose 10 µM, '-' = no inhibition, read-out: % Growth Inhibition
How it was run: as §1

OVCAR-5 = details: Homo sapiens, single dose 10 µM, '-' = no inhibition, read-out: % Growth Inhibition
How it was run: as §1

MALME-3M = details: Homo sapiens, single dose 10 µM, '-' = no inhibition, read-out: % Growth Inhibition
How it was run: as §1

A498 = details: Homo sapiens, single dose 10 µM, '-' = no inhibition, read-out: % Growth Inhibition
How it was run: as §1

SK-MEL-2 = details: Homo sapiens, single dose 10 µM, '-' = no inhibition, read-out: % Growth Inhibition
How it was run: as §1

U251 = details: Homo sapiens, U-251, single dose 10 µM, '-' = no inhibition, read-out: % Growth Inhibition
How it was run: as §1

COLO 205 = details: Homo sapiens, single dose 10 µM, '-' = no inhibition, read-out: % Growth Inhibition
How it was run: as §1

NCI-H322M = details: Homo sapiens, single dose 10 µM, '-' = no inhibition, read-out: % Growth Inhibition
How it was run: as §1

Compound: COc1ccc(-c2cc(-c3cccc(OC)c3)nc(SC(C)C)n2)cc1 [Compound 19, 2-(Isopropylthio)-6-(3-methoxyphenyl)-4-(4-methoxyphenyl)pyrimidine]
- inhibition at 10 µM (HCC-2998): < 0%
- inhibition at 10 µM (DU-145): 4.58%
- inhibition at 10 µM (LOX IMVI): 6.05%
- inhibition at 10 µM (IGROV1): < 0%
- inhibition at 10 µM (T-47D): 24.6%
- inhibition at 10 µM (PC-3): 17.2%
- inhibition at 10 µM (NCI-H522): 21%
- inhibition at 10 µM (NCI/ADR-RES): 9.86%
- inhibition at 10 µM (NCI-H460): 2.13%
- inhibition at 10 µM (MCF7): 11.6%
- inhibition at 10 µM (HOP-62): < 0%
- inhibition at 10 µM (OVCAR-4): 4.28%
- inhibition at 10 µM (SK-OV-3): < 0%
- inhibition at 10 µM (HCT-116): 23.8%
- inhibition at 10 µM (ACHN 1): < 0%
- inhibition at 10 µM (SF-539): 0.24%
- inhibition at 10 µM (SF-295): 4.16%
- inhibition at 10 µM (CCRF-CEM): 9.07%
- inhibition at 10 µM (UO-31): 23.6%
- inhibition at 10 µM (HOP-92): < 0%
- inhibition at 10 µM (SW-620): < 0%
- inhibition at 10 µM (KM12): 5.72%
- inhibition at 10 µM (SK-MEL-5): 7.31%
- inhibition at 10 µM (SNB-19): 7.53%
- inhibition at 10 µM (SNB-75): < 0%
- inhibition at 10 µM (NCI-H23): 8.76%
- inhibition at 10 µM (SR): 27.6%
- inhibition at 10 µM (SF-268): 9.81%
- inhibition at 10 µM (M14): < 0%
- inhibition at 10 µM (HCT-15): 24.5%
- inhibition at 10 µM (HS 578T): 4.95%
- inhibition at 10 µM (EKVX): 22.7%
- inhibition at 10 µM (A549/ATCC): 15.9%
- inhibition at 10 µM (CAKI-1): 24.1%
- inhibition at 10 µM (MDA-MB-468): 20.2%
- inhibition at 10 µM (SK-MEL-28): < 0%
- inhibition at 10 µM (RXF 393): 18.9%
- inhibition at 10 µM (RPMI-8226): 10.1%
- inhibition at 10 µM (UACC-62): 25.5%
- inhibition at 10 µM (OVCAR-3): < 0%
- inhibition at 10 µM (786-0): 4.09%
- inhibition at 10 µM (OVCAR-5): 0.61%
- inhibition at 10 µM (MALME-3M): < 0%
- inhibition at 10 µM (A498): < 0%
- inhibition at 10 µM (SK-MEL-2): 7.18%
- inhibition at 10 µM (U251): 10.2%
- inhibition at 10 µM (COLO 205): 0.02%
- inhibition at 10 µM (NCI-H322M): 4.92%

Compound: C=CCSc1nc(-c2ccc(OC)cc2)cc(-c2cccc(OC)c2)n1 [Compound 20, 2-(Allylthio)-6-(3-methoxyphenyl)-4-(4-methoxyphenyl)pyrimidine]
- inhibition at 10 µM (HCC-2998): 2.37%
- inhibition at 10 µM (DU-145): < 0%
- inhibition at 10 µM (LOX IMVI): 7.36%
- inhibition at 10 µM (IGROV1): < 0%
- inhibition at 10 µM (T-47D): 21.5%
- inhibition at 10 µM (PC-3): < 0%
- inhibition at 10 µM (NCI-H522): 8.49%
- inhibition at 10 µM (NCI/ADR-RES): < 0%
- inhibition at 10 µM (NCI-H460): < 0%
- inhibition at 10 µM (MCF7): 12.5%
- inhibition at 10 µM (HOP-62): < 0%
- inhibition at 10 µM (OVCAR-4): 5.65%
- inhibition at 10 µM (SK-OV-3): < 0%
- inhibition at 10 µM (HCT-116): 5.47%
- inhibition at 10 µM (ACHN 1): < 0%
- inhibition at 10 µM (SF-539): < 0%
- inhibition at 10 µM (SF-295): 3.19%
- inhibition at 10 µM (CCRF-CEM): 3.61%
- inhibition at 10 µM (UO-31): 13.2%
- inhibition at 10 µM (HOP-92): < 0%
- inhibition at 10 µM (SW-620): < 0%
- inhibition at 10 µM (KM12): < 0%
- inhibition at 10 µM (SK-MEL-5): 1.41%
- inhibition at 10 µM (SNB-19): 5.77%
- inhibition at 10 µM (SNB-75): < 0%
- inhibition at 10 µM (NCI-H23): 1.43%
- inhibition at 10 µM (SR): 13%
- inhibition at 10 µM (SF-268): < 0%
- inhibition at 10 µM (M14): 4.9%
- inhibition at 10 µM (HCT-15): 5.58%
- inhibition at 10 µM (HS 578T): < 0%
- inhibition at 10 µM (EKVX): 4.8%
- inhibition at 10 µM (A549/ATCC): 1.93%
- inhibition at 10 µM (CAKI-1): 7.19%
- inhibition at 10 µM (MDA-MB-468): 1.99%
- inhibition at 10 µM (SK-MEL-28): < 0%
- inhibition at 10 µM (RXF 393): < 0%
- inhibition at 10 µM (RPMI-8226): 4.53%
- inhibition at 10 µM (UACC-62): 18.8%
- inhibition at 10 µM (OVCAR-3): < 0%
- inhibition at 10 µM (786-0): < 0%
- inhibition at 10 µM (OVCAR-5): < 0%
- inhibition at 10 µM (MALME-3M): < 0%
- inhibition at 10 µM (A498): < 0%
- inhibition at 10 µM (SK-MEL-2): < 0%
- inhibition at 10 µM (U251): < 0%
- inhibition at 10 µM (COLO 205): < 0%
- inhibition at 10 µM (NCI-H322M): < 0%
